Assay in all cases: cAMP accumulation
Common to all, as to type: cell-based
Background: Changes in cAMP serve as a functional read-out for many G protein-coupled receptors.

In assay [1] the target is T1, hCTR I300A (Homo sapiens, UniProt P30988, I300A).
T1 construct: c-Myc (N); expressed in transfected cells
T1 sequence (P30988 25-474 I300A): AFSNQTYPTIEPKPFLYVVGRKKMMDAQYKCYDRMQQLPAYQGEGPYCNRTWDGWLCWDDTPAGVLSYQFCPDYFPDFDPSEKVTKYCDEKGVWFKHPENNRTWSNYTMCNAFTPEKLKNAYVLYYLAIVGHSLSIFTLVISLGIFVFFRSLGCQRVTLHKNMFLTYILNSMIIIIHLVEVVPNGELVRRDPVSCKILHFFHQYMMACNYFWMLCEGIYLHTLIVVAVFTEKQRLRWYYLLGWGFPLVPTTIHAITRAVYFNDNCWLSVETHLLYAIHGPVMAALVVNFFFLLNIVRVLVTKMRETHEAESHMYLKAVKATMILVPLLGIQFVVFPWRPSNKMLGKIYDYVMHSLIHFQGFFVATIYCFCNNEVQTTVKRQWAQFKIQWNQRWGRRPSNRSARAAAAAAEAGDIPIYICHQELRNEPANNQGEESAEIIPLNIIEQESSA
The following applies: cAMP maximal response, mean ± S.E.M., SEM. The method, boiled down:
(§1)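 30 min ligand stimulation with IBMX present; cells seeded overnight beforehand. Ethanol extract, dried at RT.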

For assay [2], the target named is T2, hCTR Y284A (Homo sapiens, UniProt P30988, Y284A).
T2 construct: expressed in transfected cells
T2 sequence (P30988 25-474 Y284A): T1 sequence (P30988 25-474 I300A) with Y260A, A276I
The conditions noted are these: cAMP maximal response, mean ± S.E.M., SEM. The method, boiled down:
as §1

The target in assay [3] is T3, hCTR R362A (Homo sapiens, UniProt P30988, R362A).
T3 construct: expressed in transfected cells
T3 sequence (P30988 25-474 R362A): T1 sequence (P30988 25-474 I300A) with A276I, R338A
The conditions noted are these: read-out: Emax (% WT); SEM. In a few lines: as §1

For assay [4], the target named is T4, hCTR S364A (Homo sapiens, UniProt P30988, S364A).
T4 construct: c-Myc (N); expressed in transfected cells
T4 sequence (P30988 25-474 S364A): T1 sequence (P30988 25-474 I300A) with A276I, S340A
The conditions noted are these: cAMP maximal response, mean ± S.E.M., SEM. In a few lines: as §1

Assay [5] concerns the target T5, hCTR Y372A (Homo sapiens, UniProt P30988, Y372A).
T5 construct: c-Myc (N); expressed in transfected cells
T5 sequence (P30988 25-474 Y372A): T1 sequence (P30988 25-474 I300A) with A276I, Y348A
The following applies: cAMP maximal response, mean ± S.E.M., SEM. In a few lines:
as §1

Changes are numbered by the printed parent chain.

In the case of `CC[C@H](C)[C@H](NC(=O)[C@H](C)NC(=O)[C@@H](NC(=O)[C@H](CCC(N)=O)NC(=O)[C@@H]1CCCN1C(=O)[C@H](Cc1ccccc1)NC(=O)[C@@H](NC(=O)[C@H](Cc1c[nH]cn1)NC(=O)[C@H](Cc1ccccc1)NC(=O)[C@H](CCCCN)NC(=O)[C@H](CC(N)=O)NC(=O)[C@H](Cc1ccccc1)NC(=O)[C@H](CC(=O)O)NC(=O)[C@H](CCC(N)=O)NC(=O)[C@@H](NC(=O)[C@H](Cc1ccc(O)cc1)NC(=O)[C@@H](NC(=O)CNC(=O)[C@H](CC(C)C)NC(=O)[C@H](CCSC)NC(=O)[C@@H]1CSSC[C@H](N)C(=O)NCC(=O)N[C@@H](CC(N)=O)C(=O)N[C@@H](CC(C)C)C(=O)N[C@@H](CO)C(=O)N[C@@H]([C@@H](C)O)C(=O)N1)[C@@H](C)O)[C@@H](C)O)[C@@H](C)O)[C@@H](C)O)C(=O)NCC(=O)N[C@H](C(=O)NCC(=O)N[C@@H](C)C(=O)N1CCC[C@H]1C(N)=O)C(C)C` [hCT], the Emax (in general, the greatest response seen or fitted, relative to the assay's reference) was found to be 116 ± 6% in assay [1]; 103 ± 10% in assay [2]; 125 ± 9% in assay [3]; 97 ± 9% in assay [4]; 149 ± 12% in assay [5].

Source of the values: paper PMC5908784, “Extracellular loops 2 and 3 of the calcitonin receptor selectively modify agonist binding and efficacy” (Biochemical Pharmacology, 2018).
